Reference: patent publication EP3305781A1, “CHEMICAL SUBSTANCES WHICH INHIBIT THE ENZYMATIC ACTIVITY OF HUMAN KALLIKREIN-RELATED PEPTIDASE 6 (KLK6)” (Deutsches Krebsforschungszentrum, priority 2016, dated 2018)
Read-outs that look alike come from different tables or passages of the source.

Legend:
Assay in all cases: Biochemical inhibition assay, fluorogenic substrate FSR-AMC
KLK6 = KLK6 (Homo sapiens, UniProt Q92876)
Factor Xa = Factor Xa (Homo sapiens, UniProt P00742)
Trypsin = Trypsin (Homo sapiens, UniProt P07477)
Thrombin = Thrombin (Homo sapiens, UniProt P00734)
[1] = read-out: KLK6 IC50, KLK6 5 nM (produced in insect cells), 30 min incubation with inhibitor, FSR-AMC 20 µM, Tris pH 7.5
[2] = read-out: Factor Xa IC50, Factor Xa 4 nM, 30 min incubation with inhibitor, FSR-AMC 20 µM, Tris pH 7.5
[3] = read-out: Trypsin IC50, Trypsin 0.88 ng/mL, 30 min incubation with inhibitor, FSR-AMC 20 µM, Tris pH 7.5
[4] = read-out: Thrombin IC50, Thrombin 9.8·10^-5 NIH unit/mL, 30 min incubation with inhibitor, FSR-AMC 20 µM, Tris pH 7.5

Factor Xa, sequence (P00742 235-488 limits assumed): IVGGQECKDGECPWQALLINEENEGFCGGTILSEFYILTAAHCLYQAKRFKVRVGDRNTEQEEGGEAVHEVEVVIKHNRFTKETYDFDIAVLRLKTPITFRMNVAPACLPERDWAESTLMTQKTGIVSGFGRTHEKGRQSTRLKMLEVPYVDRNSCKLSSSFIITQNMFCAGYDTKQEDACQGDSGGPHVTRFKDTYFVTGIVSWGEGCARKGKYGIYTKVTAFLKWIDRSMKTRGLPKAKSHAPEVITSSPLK
Factor Xa, sequence (P00742 41-179 partner limits assumed): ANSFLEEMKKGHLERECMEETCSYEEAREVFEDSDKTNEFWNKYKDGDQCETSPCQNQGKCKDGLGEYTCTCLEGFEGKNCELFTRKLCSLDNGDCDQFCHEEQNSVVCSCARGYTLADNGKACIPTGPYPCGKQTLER

Row | Structure (SMILES) | IC50 (KLK6) [µM] | IC50 (Factor Xa) [µM] | IC50 (Trypsin) [µM] | IC50 (Thrombin) [µM] | IC50 (KLK6; [1]) [µM] | IC50 (Factor Xa; [2]) [µM] | IC50 (Trypsin; [3]) [µM] | IC50 (Thrombin; [4]) [µM]
1 | Cc1nn(-c2ccccc2)c(C)c1NC(=O)COC(=O)Cn1cc(C)c2ccccc21 [compound 14, 2-((3,5-dimethyl-1-phenyl-1H-pyrazol-4-yl)amino)-2-oxoethyl 2-(3-methyl-1H-indol-1-yl)acetate] | 16.2 | > 200 | > 200 | > 200 |  |  |  | 
2 | Cc1nn(-c2ccccc2)c(C)c1NC(=O)COC(=O)Cn1c(C)c(C)c2ccccc21 [compound 15] |  |  |  |  | 4.72 | > 200 | 144 | > 200
3 | Cc1nn(-c2ccccc2)c(C)c1NC(=O)COC(=O)Cn1c(C(F)(F)F)cc2ccccc21 [compound 16] |  |  |  |  | 0.158 | > 200 | > 200 | > 200
4 | Cc1cc(C)n(CC(=O)OCC(=O)Nc2c(C)nn(-c3ccccc3)c2C)n1 [compound 17] |  |  |  |  | 109 | > 200 | > 200 | > 200
5 | Cc1nn(-c2ccccc2)c(C)c1NC(=O)COC(=O)Cc1cn(C)c2ccccc12 [compound 18] |  |  |  |  | 11.6 | 50.5 | 149 | > 200
6 | Cc1nn(-c2ccc(NCCCCO)cc2)c(C)c1NC(=O)COC(=O)Cn1c(C)cc2ccccc21 [compound 19] |  |  |  |  | 0.264 | > 200 | 21.3 | > 200
7 | Cc1ccc(-n2nc(C)c(NC(=O)COC(=O)Cn3c(C(F)(F)F)cc4ccccc43)c2C)cc1 [compound 20] |  |  |  |  | 0.24 | > 200 | > 200 | > 200
8 | Cc1nn(-c2ccc([N+](=O)[O-])cc2)c(C)c1NC(=O)COC(=O)Cn1c(C(F)(F)F)cc2ccccc21 [compound 21] |  |  |  |  | 112 | > 200 | > 200 | > 200
9 | Cc1nn(-c2ccc(N)cc2)c(C)c1NC(=O)COC(=O)Cn1c(C)cc2ccccc21 [compound 22] |  |  |  |  | 0.486 | > 200 | 105 | > 200
10 | Cc1nn(-c2ccccc2N)c(C)c1NC(=O)COC(=O)Cn1c(C)cc2ccccc21 [compound 23] |  |  |  |  | 0.375 | > 200 | > 200 | > 200
11 | Cc1cc2ccccc2n1CC(=O)OCC(=O)Nc1ccccc1 [compound 24] |  |  |  |  | 9.96 | > 50 | > 50 | > 50
12 | Cc1nn(-c2ccccc2)c(C)c1NC(=O)COC(=O)Cn1ccc2c(F)cccc21 [compound 25] |  |  |  |  | 30.6 | > 50 | > 50 | > 50
13 | Cc1nn(-c2ccccc2)c(C)c1NC(=O)COC(=O)Cn1ccc2cc(Cl)ccc21 [compound 28] |  |  |  |  | 26 | > 50 | > 50 | > 50
14 | Cc1nn(-c2ccccc2)c(C)c1NC(=O)COC(=O)Cn1ccc2cccc(Cl)c21 [compound 31] |  |  |  |  | 1.2 | > 50 | > 50 | > 50
15 | Cc1nn(-c2ccccc2)c(C)c1NC(=O)COC(=O)Cn1c(C(C)C)cc2ccccc21 [compound 32] |  |  |  |  | 3.36 | > 50 | > 50 | > 50
16 | Cc1nn(-c2ccccc2)c(C)c1NC(=O)COC(=O)Cn1c(C)cc2cccc(Cl)c21 [compound 33] |  |  |  |  | 6.49 | > 50 | > 50 | > 50
17 | Cc1nn(-c2ccccc2)c(C)c1NC(=O)COC(=O)C(C)n1c(C)cc2ccccc21 (stereo not drawn) [compound 34] |  |  |  |  | 11.3 | > 50 | > 50 | > 50
18 | Cc1cc2ccccc2n1CC(=O)OCC(=O)Nc1ccc(N2CCOCC2)cc1 [compound 35] |  |  |  |  | 1.41 | > 50 | > 50 | > 50
19 | CCc1cc2ccccc2n1CC(=O)OCC(=O)Nc1c(C)nn(-c2ccccc2)c1C [compound 36] |  |  |  |  | 0.433 | > 50 | 29.3 | > 50
20 | Cc1[nH]c2ccccc2c1CC(=O)OCC(=O)Nc1cnn(-c2ccccc2)c1 [compound 39] |  |  |  |  | 6.98 | > 50 | > 50 | > 50
21 | Cc1nn(-c2ccccc2)c(C)c1NC(=O)COC(=O)Cc1coc2ccccc12 [compound 41] |  |  |  |  | 31.3 | > 50 | > 50 | > 50
22 | CC(=O)Nc1cccc(CC(=O)OCC(=O)Nc2c(C)nn(-c3ccccc3)c2C)c1 [compound 47] |  |  |  |  | 31.4 | > 200 | > 200 | > 200
23 | Cc1ccccc1CC(=O)OCC(=O)Nc1c(C)nn(-c2ccccc2)c1C [compound 50] |  |  |  |  | 2.16 | > 200 | > 200 | > 200
24 | Cc1nn(-c2ccccc2)c(C)c1NC(=O)COC(=O)Cc1ccccc1I [compound 51] |  |  |  |  | 0.261 | > 200 | > 200 | > 200

Row | Structure (SMILES) | IC50 (KLK6) [µM] | IC50 (Factor Xa) [µM] | IC50 (Trypsin) [µM] | IC50 (Thrombin) [µM] | IC50 (KLK6; [1]) [µM] | IC50 (Factor Xa; [2]) [µM] | IC50 (Trypsin; [3]) [µM] | IC50 (Thrombin; [4]) [µM]
25 | COc1ccc(CC(=O)OCC(=O)Nc2c(C)nn(-c3ccccc3)c2C)cc1 [compound 52] |  |  |  |  | 32.8 | > 200 | > 200 | > 200
26 | COc1cccc(CC(=O)OCC(=O)Nc2c(C)nn(-c3ccccc3)c2C)c1 [compound 53] |  |  |  |  | 30 | > 200 | > 200 | > 200
27 | COc1ccccc1CC(=O)OCC(=O)Nc1c(C)nn(-c2ccccc2)c1C [compound 54] |  |  |  |  | 4.85 | > 200 | > 200 | > 200
28 | Cc1nn(-c2ccccc2)c(C)c1NC(=O)COC(=O)Cc1cccc(N)c1 [compound 55] |  |  |  |  | 17 | > 200 | > 200 | > 200
29 | Cc1nn(-c2ccccc2)c(C)c1NC(=O)COC(=O)Cc1cccc(C#N)c1 [compound 56] |  |  |  |  | 16.1 | > 200 | > 200 | > 200
30 | Cc1nn(-c2ccccc2)c(C)c1NC(=O)COC(=O)Cc1ccccn1 [compound 58] |  |  |  |  | 8.86 | > 200 | > 200 | > 200
31 | Cc1nn(-c2ccccc2)c(C)c1NC(=O)COC(=O)Cc1cccs1 [compound 59] |  |  |  |  | 6.28 | > 200 | > 200 | > 200
32 | Cc1nn(-c2ccccc2)c(C)c1NC(=O)COC(=O)Cc1ccc(Cl)s1 [compound 60] |  |  |  |  | 32.6 | > 200 | > 200 | > 200
33 | Cc1nn(-c2ccccc2)c(C)c1NC(=O)COC(=O)Cc1cc(Cl)sc1Cl [compound 61] |  |  |  |  | 2.33 | > 200 | > 200 | > 200
34 | Cc1nn(-c2ccccc2)c(C)c1NC(=O)COC(=O)Cc1ccccc1C(F)(F)F [compound 63] |  |  |  |  | 2.35 | > 200 | > 200 | > 200
35 | Cc1nn(-c2ccccc2)c(C)c1NC(=O)COC(=O)Cc1cccc(F)c1 [compound 64] |  |  |  |  | 22 | > 200 | > 200 | > 200
36 | C=CCOc1ccccc1NC(=O)COC(=O)Cc1ccccc1I [compound 65] |  |  |  |  | 38.7 | > 200 | > 200 | > 200
37 | Cc1nn(-c2ccccc2)c(C)c1NC(=O)COC(=O)Cc1ccsc1Cl [compound 66] |  |  |  |  | 7.4 | > 200 | > 200 | > 200
38 | Cc1[nH]c2ccccc2c1CC(=O)OCC(=O)NC(C)(C)C [compound 67] |  |  |  |  | 166 | > 200 | > 200 | > 200
39 | Cc1nn(-c2ccccc2)c(C)c1NC(=O)COC(=O)Cc1ccco1 [compound 68] |  |  |  |  | 46 | > 200 | > 200 | > 200
40 | Cc1nn(-c2ccccc2)c(C)c1NC(=O)COC(=O)Cc1ccccc1OCc1ccccc1 [compound 69] |  |  |  |  | 57.4 | > 200 | > 200 | > 200
41 | Cc1[nH]c2ccccc2c1CC(=O)OCC(=O)NC1CCCC1 [compound 71] |  |  |  |  | 78.7 | > 200 | > 200 | > 200
42 | Cc1[nH]c2ccccc2c1CC(=O)OCC(=O)Nc1ccc(F)cn1 [compound 72] |  |  |  |  | 12.3 | 65.9 | 50.4 | 60.3
43 | Cc1[nH]c2ccccc2c1CC(=O)OCC(=O)Nc1ccccc1Cl [compound 73] |  |  |  |  | 1.46 | 34.7 | 114 | > 200
44 | Cc1ccc(NC(=O)COC(=O)Cc2c(C)[nH]c3ccccc23)cc1 [compound 74] |  |  |  |  | 4.57 | > 200 | > 200 | > 200
45 | Cc1cccc(NC(=O)COC(=O)Cc2c(C)[nH]c3ccccc23)c1 [compound 75] |  |  |  |  | 5.38 | > 200 | > 200 | > 200
46 | COc1ccccc1NC(=O)COC(=O)Cc1c(C)[nH]c2ccccc12 [compound 77] |  |  |  |  | 1.86 | 21.1 | 28.7 | > 200
47 | Cc1ccccc1NC(=O)COC(=O)Cc1c(C)[nH]c2ccccc12 [compound 78] |  |  |  |  | 4.73 | > 200 | > 200 | > 200
48 | COc1cccc(NC(=O)COC(=O)Cc2c(C)[nH]c3ccccc23)c1 [compound 79] |  |  |  |  | 6.05 | > 200 | > 200 | > 200
